US9212182B2, “Bicyclic sulfonamide compounds as sodium channel inhibitors” (AMGEN INC., priority 2013, dated 2015)
Read-outs that look alike come from different tables or passages of the source.

Assays:
Nav 1.7 = Nav 1.7 (Homo sapiens (Human), UniProt Q15858); assay: in-vitro Nav 1.7 PX (IC50); assay type: cell-based
Nav 1.5 = Nav 1.5 (Homo sapiens (Human), UniProt Q14524); assay: in-vitro Nav 1.5 PX (IC50); conditions: read-out: Nav 1.5 PX IC50
Sequence of Nav 1.5 (Q14524 whole entry): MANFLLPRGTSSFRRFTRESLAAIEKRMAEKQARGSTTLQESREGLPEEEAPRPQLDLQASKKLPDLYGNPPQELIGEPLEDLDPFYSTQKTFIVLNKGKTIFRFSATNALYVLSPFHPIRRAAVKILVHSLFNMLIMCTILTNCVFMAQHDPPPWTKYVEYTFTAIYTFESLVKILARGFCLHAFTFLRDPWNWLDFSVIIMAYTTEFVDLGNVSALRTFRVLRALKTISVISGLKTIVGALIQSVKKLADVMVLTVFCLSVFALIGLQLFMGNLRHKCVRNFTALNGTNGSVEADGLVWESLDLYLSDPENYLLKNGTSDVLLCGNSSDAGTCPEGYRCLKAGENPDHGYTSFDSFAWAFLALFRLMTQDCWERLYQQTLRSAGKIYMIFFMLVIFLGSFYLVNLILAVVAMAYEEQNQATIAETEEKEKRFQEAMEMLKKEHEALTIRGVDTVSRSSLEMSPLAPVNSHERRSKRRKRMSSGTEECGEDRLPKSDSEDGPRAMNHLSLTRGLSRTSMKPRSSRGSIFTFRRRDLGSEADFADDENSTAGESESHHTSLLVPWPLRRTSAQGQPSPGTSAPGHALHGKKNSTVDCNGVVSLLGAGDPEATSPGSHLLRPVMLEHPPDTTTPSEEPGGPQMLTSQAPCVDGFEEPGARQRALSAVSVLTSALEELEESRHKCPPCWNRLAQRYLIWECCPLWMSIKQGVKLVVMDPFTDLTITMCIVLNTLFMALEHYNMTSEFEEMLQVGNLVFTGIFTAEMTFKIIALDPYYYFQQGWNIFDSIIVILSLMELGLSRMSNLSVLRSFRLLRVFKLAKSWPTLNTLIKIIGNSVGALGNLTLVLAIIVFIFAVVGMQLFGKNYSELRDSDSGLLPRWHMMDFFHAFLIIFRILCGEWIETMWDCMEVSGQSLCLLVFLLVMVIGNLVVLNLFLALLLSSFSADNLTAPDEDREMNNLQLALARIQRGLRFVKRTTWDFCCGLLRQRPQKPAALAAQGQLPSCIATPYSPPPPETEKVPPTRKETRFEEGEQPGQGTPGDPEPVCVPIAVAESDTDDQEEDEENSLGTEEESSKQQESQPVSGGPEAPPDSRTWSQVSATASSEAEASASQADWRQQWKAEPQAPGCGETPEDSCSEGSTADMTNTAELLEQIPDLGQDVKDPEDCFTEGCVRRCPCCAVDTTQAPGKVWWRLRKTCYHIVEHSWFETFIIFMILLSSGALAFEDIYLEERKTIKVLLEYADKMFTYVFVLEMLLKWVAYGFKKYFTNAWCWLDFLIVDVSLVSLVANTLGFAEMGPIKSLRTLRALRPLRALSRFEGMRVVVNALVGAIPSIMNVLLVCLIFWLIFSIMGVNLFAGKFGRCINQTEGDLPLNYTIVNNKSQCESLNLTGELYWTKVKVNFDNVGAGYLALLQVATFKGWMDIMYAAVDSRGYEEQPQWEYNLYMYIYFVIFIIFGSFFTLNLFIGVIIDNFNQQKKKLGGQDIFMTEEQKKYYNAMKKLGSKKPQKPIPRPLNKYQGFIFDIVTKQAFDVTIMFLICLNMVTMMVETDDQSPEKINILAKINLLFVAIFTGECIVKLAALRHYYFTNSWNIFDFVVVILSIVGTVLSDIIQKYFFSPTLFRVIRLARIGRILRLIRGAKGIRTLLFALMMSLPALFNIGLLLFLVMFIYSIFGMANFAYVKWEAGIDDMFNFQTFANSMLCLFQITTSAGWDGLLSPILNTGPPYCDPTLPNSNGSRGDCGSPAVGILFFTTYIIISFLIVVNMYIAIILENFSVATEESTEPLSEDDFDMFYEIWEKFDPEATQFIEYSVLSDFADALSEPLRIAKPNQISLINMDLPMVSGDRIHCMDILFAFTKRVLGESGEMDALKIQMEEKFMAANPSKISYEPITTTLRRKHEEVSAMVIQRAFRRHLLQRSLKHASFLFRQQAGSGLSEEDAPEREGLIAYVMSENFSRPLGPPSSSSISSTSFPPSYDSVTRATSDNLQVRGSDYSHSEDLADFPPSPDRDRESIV

Sequence of Nav 1.7 (Q15858 whole entry): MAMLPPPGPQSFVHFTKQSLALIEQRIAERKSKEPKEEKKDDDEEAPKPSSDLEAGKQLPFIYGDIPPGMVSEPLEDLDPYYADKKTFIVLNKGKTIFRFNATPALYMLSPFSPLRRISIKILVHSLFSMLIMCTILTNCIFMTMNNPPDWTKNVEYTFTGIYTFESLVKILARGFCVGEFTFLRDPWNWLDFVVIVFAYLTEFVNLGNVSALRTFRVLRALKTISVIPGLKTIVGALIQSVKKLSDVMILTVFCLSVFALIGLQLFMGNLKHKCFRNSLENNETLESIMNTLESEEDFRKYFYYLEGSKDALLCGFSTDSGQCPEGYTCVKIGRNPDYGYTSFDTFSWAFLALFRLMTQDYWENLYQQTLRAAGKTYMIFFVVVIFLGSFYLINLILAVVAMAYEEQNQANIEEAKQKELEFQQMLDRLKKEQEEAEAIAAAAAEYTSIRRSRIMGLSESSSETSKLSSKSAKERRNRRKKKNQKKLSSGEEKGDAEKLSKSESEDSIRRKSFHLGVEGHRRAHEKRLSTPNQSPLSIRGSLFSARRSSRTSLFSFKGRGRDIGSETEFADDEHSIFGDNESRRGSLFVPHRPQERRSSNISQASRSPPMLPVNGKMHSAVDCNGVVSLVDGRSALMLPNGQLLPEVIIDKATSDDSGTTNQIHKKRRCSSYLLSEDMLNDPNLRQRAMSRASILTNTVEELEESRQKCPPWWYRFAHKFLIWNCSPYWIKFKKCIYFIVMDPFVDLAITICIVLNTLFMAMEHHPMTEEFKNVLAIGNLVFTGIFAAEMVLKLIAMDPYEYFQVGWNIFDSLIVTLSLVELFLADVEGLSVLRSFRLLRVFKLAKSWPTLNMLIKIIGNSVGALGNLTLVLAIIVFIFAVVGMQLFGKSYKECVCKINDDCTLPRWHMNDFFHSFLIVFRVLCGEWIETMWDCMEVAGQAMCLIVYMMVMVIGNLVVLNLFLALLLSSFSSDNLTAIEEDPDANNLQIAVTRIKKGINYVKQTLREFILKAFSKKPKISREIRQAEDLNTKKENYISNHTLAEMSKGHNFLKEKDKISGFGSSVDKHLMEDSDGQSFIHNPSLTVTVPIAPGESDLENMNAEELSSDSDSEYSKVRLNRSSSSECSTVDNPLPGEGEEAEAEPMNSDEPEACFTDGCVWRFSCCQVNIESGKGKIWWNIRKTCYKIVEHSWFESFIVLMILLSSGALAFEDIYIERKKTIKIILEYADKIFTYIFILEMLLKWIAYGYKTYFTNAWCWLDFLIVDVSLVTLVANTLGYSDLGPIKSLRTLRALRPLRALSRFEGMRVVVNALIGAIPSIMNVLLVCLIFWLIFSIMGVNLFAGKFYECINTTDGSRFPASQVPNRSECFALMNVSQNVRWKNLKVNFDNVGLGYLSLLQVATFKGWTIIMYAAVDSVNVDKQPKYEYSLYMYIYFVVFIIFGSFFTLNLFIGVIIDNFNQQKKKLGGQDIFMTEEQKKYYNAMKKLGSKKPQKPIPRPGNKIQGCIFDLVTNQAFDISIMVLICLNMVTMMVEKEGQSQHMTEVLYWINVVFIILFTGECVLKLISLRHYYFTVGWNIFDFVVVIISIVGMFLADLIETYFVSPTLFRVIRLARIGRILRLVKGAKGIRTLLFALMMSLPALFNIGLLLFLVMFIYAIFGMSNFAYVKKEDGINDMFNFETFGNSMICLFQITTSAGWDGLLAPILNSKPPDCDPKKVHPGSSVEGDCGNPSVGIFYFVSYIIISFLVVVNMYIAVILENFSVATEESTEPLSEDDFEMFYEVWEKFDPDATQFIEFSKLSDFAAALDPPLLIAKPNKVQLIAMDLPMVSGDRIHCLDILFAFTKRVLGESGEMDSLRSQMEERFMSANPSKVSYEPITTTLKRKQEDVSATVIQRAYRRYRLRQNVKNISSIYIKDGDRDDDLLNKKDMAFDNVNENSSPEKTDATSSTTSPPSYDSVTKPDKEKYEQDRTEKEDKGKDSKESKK

COc1cc(-c2cccc(F)c2)c(Cl)cc1-n1c(=O)ccc2cc(S(=O)(=O)Nc3nncs3)ccc21 (atropisomer, axis not shown; (P)) [Example 353, (P)-1-(2-chloro-3′-fluoro-5-methoxy-[1,1′-biphenyl]-4-yl)-2-oxo-N-(1,3,4-THIADIAZOL-2-yl)-1,2-dihydroquinoline-6-sulfonamide]
IC50 (Nav 1.7): 12 nM
IC50 (Nav 1.5): > 30000 nM

COc1cc(-c2cc(F)cnc2OC)ccc1-n1c(=O)ccc2cc(S(=O)(=O)Nc3ccon3)ccc21 (atropisomer, axis not shown; (P)) [Example 581, (P)-1-(4-(5-fluoro-2-methoxy-3-pyridinyl)-2-methoxyphenyl)-N-3-isoxazolyl-2-oxo-1,2-dihydro-6-quinolinesulfonamide]
IC50 (Nav 1.7): 102 nM
IC50 (Nav 1.5): > 10000 nM

COc1cc(-c2cc(OC)c(-n3c(=O)ccc4cc(S(=O)(=O)Nc5ccon5)ccc43)cc2F)ccc1C [Example 698, 1-(2-fluoro-3′,5-dimethoxy-4′-methyl-4-biphenylyl)-N-3-isoxazolyl-2-oxo-1,2-dihydro-6-quinolinesulfonamide]
IC50 (Nav 1.7; in-vitro Nav 1.7 PX data): 14 nM
IC50 (Nav 1.5; in-vitro Nav 1.5 PX data): > 10000 nM

COc1cc(-c2ccc(Cl)c(C)c2)c(F)cc1-n1c(=O)ccc2cc(S(=O)(=O)Nc3ncns3)ccc21 [Example 1075, 1-(4′-chloro-2-fluoro-5-methoxy-3′-methyl-4-biphenylyl)-2-oxo-N-1,2,4-thiadiazol-5-yl-1,2-dihydro-6-quinolinesulfonamide]
IC50 (Nav 1.7; in-vitro Nav 1.7 PX data): 4 nM
IC50 (Nav 1.5; in-vitro Nav 1.5 PX data): > 10000 nM

COc1cc(-c2cc(F)cc(Cl)c2)c(F)cc1-n1c(=O)ccc2cc(S(=O)(=O)Nc3ccon3)ccc21 (atropisomer, axis not shown; (P)) [Example 477, (P)-1-(3′-chloro-2,5′-difluoro-5-methoxy-4-biphenylyl)-N-3-isoxazolyl-2-oxo-1,2-dihydro-6-quinolinesulfonamide]
IC50 (Nav 1.7): 7 nM
IC50 (Nav 1.5): > 30000 nM

COc1cc(-c2cccc(C(F)(F)F)c2)c(Cl)cc1-n1c(=O)ccc2cc(S(=O)(=O)Nc3ccon3)ccc21 (atropisomer, axis not shown; (P)) [Example 533, (P)-1-(2-chloro-5-methoxy-3′-(trifluoromethyl)-[1,1′-biphenyl]-4-yl)-N-(isoxazol-3-yl)-2-oxo-1,2-dihydroquinoline-6-sulfonamide]
IC50 (Nav 1.7): 4 nM
IC50 (Nav 1.5): > 30000 nM

COc1cc(-c2ccc(F)c(C)c2)c(F)cc1-n1c(=O)ccc2cc(S(=O)(=O)Nc3ccon3)c(F)cc21 [Example 981, 1-(2,4′-difluoro-5-methoxy-3′-methyl-4-biphenylyl)-7-fluoro-N-3-isoxazolyl-2-oxo-1,2-dihydro-6-quinolinesulfonamide]
IC50 (Nav 1.7; in-vitro Nav 1.7 PX data): 14 nM
IC50 (Nav 1.5; in-vitro Nav 1.5 PX data): 496 nM

COc1cc(-c2cc(F)cc(Cl)c2)c(Cl)cc1-n1c(=O)ccc2cc(S(=O)(=O)Nc3ccon3)ccc21 (atropisomer, axis not shown; (P)) [Example 461, (P)-1-(2,3′-dichloro-5′-fluoro-5-methoxy-[1,1′-biphenyl]-4-yl)-N-(isoxazol-3-yl)-2-oxo-1,2-dihydroquinoline-6-sulfonamide]
IC50 (Nav 1.7): 6 nM
IC50 (Nav 1.5): > 30000 nM

COc1cc(-c2cccc(F)c2)c(Cl)cc1-n1c(=O)ccc2cc(S(=O)(=O)Nc3cccnn3)ccc21 (atropisomer, axis not shown; (P)) [Example 467, (P)-1-(2-chloro-3′-fluoro-5-methoxy-[1,1′-biphenyl]-4-yl)-2-oxo-N-(pyridazin-3-yl)-1,2-dihydroquinoline-6-sulfonamide]
IC50 (Nav 1.7): 13 nM
IC50 (Nav 1.5): > 30000 nM
